Patent US11298312B2, “Composition comprising niacinamide and picolinamide” (Conopco, Inc., priority 2015, dated 2022)

Each molecule was assayed on psoriasin secretion (assay: In-vitro generation of AMP (psoriasin) in differentiated NHEK keratinocytes, psoriasin ELISA of culture supernatant). Conditions: NHEK cells, KGM + 2 mM calcium chloride, 72 h treatment; fold change over control (Example A); concentrations per Table 3.
Type: cell-based, Human
Procedure: In-Vitro Experiment with Combination of Niacinamide and Picolinamide as Per the Present Invention for Generation of AMP (Psoriasin): The experiment was done using the following protocol: Step 1: Human neonatal primary skin keratinocyte (NHEK) cells was obtained from Lonza®. The experiment was done with the above-mentioned cells with passage between 3 and 4. Then, the cells were seeded (35,000 cells/well) in 24 well plate with keratinocyte growth media (KGM) obtained from Invitrogen®. The plate was then incubated at 37±2° C. in a CO2 incubator for 48 hours. Step 2: After 48 hours of incubation, cell differentiation was induced by replacing media with fresh KGM supplemented with 2 mM calcium chloride solution. This was then followed by incubation at 37±2° C. in a CO2 incubator for 48 hours. Step 3: After that, the cells were treated with different concentration of Niacinamide and picolinamide and their combination at various concentration as per following Table 3 with keratinocyte growth media supplemented with 2 mM calcium chloride solution: Step 4: After the above treatment, cells were again incubated at 37±2° C. in a CO2 incubator for 72 hours Step 5: After 72 h of incubation, cell culture supernatant from each well was collected in a sterile tube. The samples were then stored at −80° C. until used for testing psoriasin secretion by standard ELISA technique using psoriasin ELISA kit obtained from Circulx® (No: CY—8073). In the current experiment, psoriasin was used as a marker for AMP. Step 6: The ELISA method was performed by using 100 μL of cell culture supernatant from each sample. The data is expressed in terms of fold change over control (without Niacinamide and/or picolinamide, Example A).
For `NC(=O)c1cccnc1` [Example B, Niacinamide], the “Fold change in psoriasin secretion” value was 1.8.
In the case of `NC(=O)c1cccnc1` [Example C, Niacinamide], the “Fold change in psoriasin secretion” value is reported as 3.3.
For `NC(=O)c1ccccn1` [Example D, picolinamide], the “Fold change in psoriasin secretion” value was 3.5.
In the case of `NC(=O)c1ccccn1` [Example E, picolinamide], the “Fold change in psoriasin secretion” value is reported as 3.8.
